The values below are quoted from earlier work in patent US8137397B2, “Medical devices” (Boston Scientific Scimed, Inc., priority 2004, dated 2012).

The conditions of the series: at about room temperature, i.e., about 25° C.; for solubility: in water.

`OC[C@@H](O)[C@@H](O)[C@H](O)[C@H](O)CO` [Mannitol, mannitol]: the solubility entry is listed as “about 0.18 gram/mL of water”.

Turning to `[Cl-].[K+]` [Potassium chloride, potassium chloride], the solubility result is reported as “about 0.36 gram/mL of water”.

As to `O=C(CO)[C@H](O)[C@@H](O)[C@H](O)CO` [Sorbose, sorbose], the “solubility in water (in words)” value is reported as “freely soluble in water”.

Consider `OC[C@H]1O[C@@](CO)(O[C@H]2O[C@H](CO)[C@@H](O)[C@H](O)[C@H]2O)[C@@H](O)[C@@H]1O` [Sucrose, sucrose], for which the solubility result is listed as “about 2 gram/mL of water”.
